Results reported in ChEMBL document CHEMBL1150650, “Bioactive constituents from Iryanthera megistophylla” (2002).
≈ marks a conversion by molar mass, not a printed value. Calls of active or inactive are those of the source. The calls are words filed in the database; no cut-off is given here.

target: Acetylcholinesterase (Homo sapiens) (UniProt P22303); assay: Inhibition of acetylcholinesterase-mediated hydrolysis of acetylcholine at 0.8 mg/mL relative to galanthamine; conditions: not given
Sequence (P22303 whole entry): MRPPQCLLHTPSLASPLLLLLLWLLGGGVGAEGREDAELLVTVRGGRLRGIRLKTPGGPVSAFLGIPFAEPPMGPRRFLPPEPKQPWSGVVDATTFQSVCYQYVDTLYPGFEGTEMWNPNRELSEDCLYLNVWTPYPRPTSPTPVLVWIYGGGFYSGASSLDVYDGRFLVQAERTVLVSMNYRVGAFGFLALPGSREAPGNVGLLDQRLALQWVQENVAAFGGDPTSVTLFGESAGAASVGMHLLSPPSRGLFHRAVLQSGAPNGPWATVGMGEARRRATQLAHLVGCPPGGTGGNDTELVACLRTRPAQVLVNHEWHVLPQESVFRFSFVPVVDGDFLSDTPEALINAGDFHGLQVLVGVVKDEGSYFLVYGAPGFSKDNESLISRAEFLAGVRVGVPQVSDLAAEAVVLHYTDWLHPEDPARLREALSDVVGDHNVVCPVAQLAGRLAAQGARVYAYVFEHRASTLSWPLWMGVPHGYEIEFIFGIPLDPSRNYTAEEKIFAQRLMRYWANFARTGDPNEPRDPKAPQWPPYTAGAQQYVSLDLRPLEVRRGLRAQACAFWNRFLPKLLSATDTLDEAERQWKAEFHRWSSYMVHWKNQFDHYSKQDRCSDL

Row | SMILES | inhibition
1 | COc1ccc(-c2c(C)c(C)cc3ccc(O)cc23)cc1 | 67.6%
2 | COc1ccc(CCC(=O)c2c(OC)cc(O)c([C@@H](c3ccc(O)cc3)[C@@H](C)[C@H](C)Cc3ccc(O)cc3)c2O)cc1 [IRYANTHERIN K] | 77.4%

system: Candida albicans; assay: Antimicrobial activity against Candida albicans at 300 ug/mL after 24 hrs by disk diffusion method; format: functional, organism-based; conditions: not given

Row | SMILES | MIC
3 | COc1ccc(-c2c(C)c(C)cc3ccc(O)cc23)cc1 | inactive
4 | C[C@@H]1OC(=O)[C@@H](CCCCCCCCCCCCCCCCCc2ccccc2)[C@@H]1O [GRANDINOLIDE] | inactive
5 | COc1ccc(CCC(=O)c2c(OC)cc(O)c([C@H](c3ccc(O)cc3)[C@@H](C)[C@H](C)Cc3ccc(O)cc3)c2O)cc1 [IRYANTHERIN L] | inactive
6 | COc1ccc(CCC(=O)c2c(OC)cc(O)c([C@@H](c3ccc(O)cc3)[C@@H](C)[C@H](C)Cc3ccc(O)cc3)c2O)cc1 [IRYANTHERIN K] | inactive
7 | CCCCCCCC/C=C\CCCCCCCCCCCCCCCC[C@H]1C(=O)O[C@H](C)[C@@H]1O [MEGISLACTONE] | inactive

system: Potato virus X; assay: Antiviral activity against Potato virus X in half leaf of Chenopodium quinoa at 9.3 mg/mL after 10 days; format: functional; conditions: 240 h

Row | SMILES | inhibition at 9300 µg/mL
8 | NC(=O)c1ncn([C@@H]2O[C@H](CO)[C@@H](O)[C@H]2O)n1 [RIBAVIRIN] | 94%
9 | COc1ccc(-c2c(C)c(C)cc3ccc(O)cc23)cc1 | 36%
10 | O=C1C[C@H](c2ccc(O)c(O)c2)c2c(cc(O)c3c2O[C@H](c2ccc(O)c(O)c2)[C@H](O)[C@H]3c2c(O)cc(O)c3c2O[C@H](c2ccc(O)c(O)c2)[C@H](O)C3)O1 [CINCHONAIN IIA] | 100%
11 | C[C@@H]1OC(=O)[C@@H](CCCCCCCCCCCCCCCCCc2ccccc2)[C@@H]1O [GRANDINOLIDE] | 30%
12 | COc1ccc(CCC(=O)c2c(OC)cc(O)c([C@H](c3ccc(O)cc3)[C@@H](C)[C@H](C)Cc3ccc(O)cc3)c2O)cc1 [IRYANTHERIN L] | 67%
13 | Oc1cc(O)c2c(c1)O[C@H](c1ccc(O)c(O)c1)[C@H](O)[C@H]2c1c(O)cc(O)c2c1O[C@H](c1ccc(O)c(O)c1)[C@H](O)C2 [PROCYANIDIN B2] | 98%
14 | COc1ccc(CCC(=O)c2c(OC)cc(O)c([C@@H](c3ccc(O)cc3)[C@@H](C)[C@H](C)Cc3ccc(O)cc3)c2O)cc1 [IRYANTHERIN K] | 89%
15 | O=c1c(O)c(-c2ccc(O)c(O)c2)oc2cc(O)cc(O)c12 [QUERCETIN] | 100%
16 | CCCCCCCC/C=C\CCCCCCCCCCCCCCCC[C@H]1C(=O)O[C@H](C)[C@@H]1O [MEGISLACTONE] | 20%

system: Human alphaherpesvirus 1; assay: Antiviral activity against HSV1 in african green monkey Vero cells at 320 ug/mL; format: functional, organism-based; conditions: not given

Row | SMILES | MIC
17 | COc1ccc(-c2c(C)c(C)cc3ccc(O)cc23)cc1 | inactive
18 | O=C1C[C@H](c2ccc(O)c(O)c2)c2c(cc(O)c3c2O[C@H](c2ccc(O)c(O)c2)[C@H](O)[C@H]3c2c(O)cc(O)c3c2O[C@H](c2ccc(O)c(O)c2)[C@H](O)C3)O1 [CINCHONAIN IIA] | inactive
19 | C[C@@H]1OC(=O)[C@@H](CCCCCCCCCCCCCCCCCc2ccccc2)[C@@H]1O [GRANDINOLIDE] | inactive
20 | COc1ccc(CCC(=O)c2c(OC)cc(O)c([C@H](c3ccc(O)cc3)[C@@H](C)[C@H](C)Cc3ccc(O)cc3)c2O)cc1 [IRYANTHERIN L] | inactive
21 | CCCCCCCC/C=C\CCCCCCCCCCCCCCCC[C@H]1C(=O)O[C@H](C)[C@@H]1O [MEGISLACTONE] | inactive

system: Candida albicans; assay: Antimicrobial activity against Candida albicans after 24 hrs by disk diffusion method; format: functional; conditions: not given

Row | SMILES | MIC
22 | O=C1C[C@H](c2ccc(O)c(O)c2)c2c(cc(O)c3c2O[C@H](c2ccc(O)c(O)c2)[C@H](O)[C@H]3c2c(O)cc(O)c3c2O[C@H](c2ccc(O)c(O)c2)[C@H](O)C3)O1 [CINCHONAIN IIA] | 150 µg/mL (≈ 203 µM)
23 | Oc1cc(O)c2c(c1)O[C@H](c1ccc(O)c(O)c1)[C@H](O)[C@H]2c1c(O)cc(O)c2c1O[C@H](c1ccc(O)c(O)c1)[C@H](O)C2 [PROCYANIDIN B2] | 150 µg/mL (≈ 259 µM)

system: Staphylococcus aureus; assay: Antimicrobial activity against Staphylococcus aureus after 24 hrs by disk diffusion method; format: functional; conditions: not given

Row | SMILES | MIC
24 | Oc1cc(O)c2c(c1)O[C@H](c1ccc(O)c(O)c1)[C@H](O)[C@H]2c1c(O)cc(O)c2c1O[C@H](c1ccc(O)c(O)c1)[C@H](O)C2 [PROCYANIDIN B2] | 100 µg/mL (≈ 173 µM)
25 | COc1ccc(CCC(=O)c2c(OC)cc(O)c([C@@H](c3ccc(O)cc3)[C@@H](C)[C@H](C)Cc3ccc(O)cc3)c2O)cc1 [IRYANTHERIN K] | 50 µg/mL (≈ 87.6 µM)

system: Staphylococcus aureus; assay: Antimicrobial activity against Staphylococcus aureus at 200 ug/mL after 24 hrs by disk diffusion method; format: functional, organism-based; conditions: not given

Row | SMILES | MIC
26 | COc1ccc(-c2c(C)c(C)cc3ccc(O)cc23)cc1 | inactive
27 | O=C1C[C@H](c2ccc(O)c(O)c2)c2c(cc(O)c3c2O[C@H](c2ccc(O)c(O)c2)[C@H](O)[C@H]3c2c(O)cc(O)c3c2O[C@H](c2ccc(O)c(O)c2)[C@H](O)C3)O1 [CINCHONAIN IIA] | inactive
28 | C[C@@H]1OC(=O)[C@@H](CCCCCCCCCCCCCCCCCc2ccccc2)[C@@H]1O [GRANDINOLIDE] | inactive
29 | COc1ccc(CCC(=O)c2c(OC)cc(O)c([C@H](c3ccc(O)cc3)[C@@H](C)[C@H](C)Cc3ccc(O)cc3)c2O)cc1 [IRYANTHERIN L] | inactive
30 | CCCCCCCC/C=C\CCCCCCCCCCCCCCCC[C@H]1C(=O)O[C@H](C)[C@@H]1O [MEGISLACTONE] | inactive
